In ChEMBL document CHEMBL1201862, “PubChem BioAssay data set” (2004):
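Dose response: 5 concentrations. Exposure: 48 h. Format: 96-well plates. Endpoint: linear interpolation; highest concentration if not reached. Abbreviation: GI50, concentration required for 50% inhibition of growth.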 Activity calls are given as the source filed them. Rule as the data show it: active = GI50 up to about 1.1 µM and inactive = higher.

Columns and labels:
Assay in all cases: NCI-60 cell line screen, 48 h
A498 = test system: A498
A549 = test system: A549
ACHN = test system: ACHN
CCRF-CEM = test system: CCRF-CEM
HCT-15 = test system: HCT-15
HOP-92 = test system: HOP-92
HT-29 = test system: HT-29
K562 = test system: K562
M14 = test system: M14
NCI-H23 = test system: NCI-H23
NCI-H460 = test system: NCI-H460
OVCAR-3 = test system: OVCAR-3
OVCAR-8 = test system: OVCAR-8
SF-268 = test system: SF-268
SF-295 = test system: SF-295
SK-MEL-2 = test system: SK-MEL-2
SK-OV-3 = test system: SK-OV-3
SN12C = test system: SN12C
U-251 = test system: U-251
UACC-257 = test system: UACC-257

Row | Compound | GI50 (A498) | GI50 (A549) | GI50 (ACHN) | GI50 (CCRF-CEM) | GI50 (HCT-15) | GI50 (HOP-92) | GI50 (HT-29) | GI50 (K562) | GI50 (M14) | GI50 (NCI-H23) | GI50 (NCI-H460) | GI50 (OVCAR-3) | GI50 (OVCAR-8) | GI50 (SF-268) | GI50 (SF-295) | GI50 (SK-MEL-2) | GI50 (SK-OV-3) | GI50 (SN12C) | GI50 (U-251) | GI50 (UACC-257)
1 | C=C=C(Sc1ccccc1)C(C)(C)OC(C)=O | 19 µM (inactive) | 23.9 µM (inactive) | > 10 µM (inactive) | 20.2 µM (inactive) | 20.6 µM | 15.8 µM (inactive) | 18.7 µM (inactive) | 22.1 µM (inactive) | 17.4 µM (inactive) | 17.2 µM (inactive) | 21.1 µM (inactive) | 16.3 µM (inactive) | 20.2 µM (inactive) | 13.9 µM (inactive) | 18.2 µM (inactive) | 17.9 µM (inactive) | 25.1 µM (inactive) | 16.2 µM (inactive) | 16.9 µM (inactive) | 17.2 µM (inactive)
2 | N#CC(C#N)=C1CCC2C(=C(C#N)C#N)CCC12 (centres undefined) | > 100 µM (inactive) | > 100 µM (inactive) | – | > 100 µM (inactive) | > 100 µM | > 100 µM (inactive) | > 100 µM (inactive) | > 100 µM (inactive) | > 100 µM (inactive) | > 100 µM (inactive) | > 100 µM (inactive) | > 100 µM (inactive) | > 100 µM (inactive) | > 100 µM (inactive) | > 100 µM (inactive) | – | > 100 µM (inactive) | > 100 µM (inactive) | > 100 µM (inactive) | > 100 µM (inactive)
3 | O=C(CCc1ccc(O)cc1)NCCc1cccc(O)c1 | > 50 µM (inactive) | > 50 µM (inactive) | > 50 µM (inactive) | > 50 µM (inactive) | > 50 µM | > 50 µM (inactive) | > 50 µM (inactive) | > 50 µM (inactive) | > 50 µM (inactive) | > 50 µM (inactive) | > 50 µM (inactive) | > 50 µM (inactive) | > 50 µM (inactive) | > 50 µM (inactive) | > 50 µM (inactive) | > 50 µM (inactive) | > 50 µM (inactive) | > 50 µM (inactive) | > 50 µM (inactive) | > 50 µM (inactive)
4 | CC(=O)c1ccc(NC(=O)/C(CC(=O)/C=C/c2ccccc2)=N/NC(N)=S)cc1 | > 100 µM (inactive) | > 100 µM (inactive) | 66.1 µM (inactive) | – | 60.5 µM | > 100 µM (inactive) | 41.5 µM (inactive) | 75.3 µM (inactive) | > 100 µM (inactive) | 60 µM (inactive) | 68.4 µM (inactive) | > 100 µM (inactive) | 87.7 µM (inactive) | > 100 µM (inactive) | > 100 µM (inactive) | > 100 µM (inactive) | > 100 µM (inactive) | > 100 µM (inactive) | > 100 µM (inactive) | > 100 µM (inactive)
5 | CSc1nc2c(nc(N)n2C2OCC(O)C(O)C2O)c(=O)[nH]1 (centres undefined) | > 100 µM (inactive) | > 100 µM (inactive) | > 100 µM (inactive) | > 100 µM (inactive) | – | > 100 µM (inactive) | > 100 µM (inactive) | > 100 µM (inactive) | > 100 µM (inactive) | > 100 µM (inactive) | > 100 µM (inactive) | > 100 µM (inactive) | > 100 µM (inactive) | > 100 µM (inactive) | > 100 µM (inactive) | – | > 100 µM (inactive) | > 100 µM (inactive) | > 100 µM (inactive) | > 100 µM (inactive)
6 | CC(C)=CCC/C(C)=C/CC/C(C)=C/C(O)c1ccccc1 (centres undefined) | 19.5 µM (inactive) | – | 17.4 µM (inactive) | 23.1 µM (inactive) | 18.8 µM | – | 18.4 µM (inactive) | 61.4 µM (inactive) | 18.3 µM (inactive) | 22.7 µM (inactive) | 19.5 µM (inactive) | 20.1 µM (inactive) | 20.6 µM (inactive) | 18.9 µM (inactive) | 18.1 µM (inactive) | 19.8 µM (inactive) | 21.8 µM (inactive) | 19.1 µM (inactive) | 18.2 µM (inactive) | 18.2 µM (inactive)
7 | CC1SC2=NC3=C(c4ccccc4C3=O)C(c3ccccc3Cl)N2C1=O (centres undefined) | > 100 µM (inactive) | > 100 µM (inactive) | > 100 µM (inactive) | 70.3 µM (inactive) | > 100 µM | 78.2 µM (inactive) | > 100 µM (inactive) | 90.2 µM (inactive) | > 100 µM (inactive) | 85.7 µM (inactive) | > 100 µM (inactive) | > 100 µM (inactive) | > 100 µM (inactive) | > 100 µM (inactive) | > 100 µM (inactive) | > 100 µM (inactive) | > 100 µM (inactive) | > 100 µM (inactive) | > 100 µM (inactive) | > 100 µM (inactive)
8 | COc1ccc(-c2cc(N3CCN(c4ccccc4)CC3)c(C#N)c(=O)o2)cc1 | 26.9 µM (inactive) | 21.2 µM (inactive) | 28.6 µM (inactive) | 98.4 µM (inactive) | 65.2 µM | 55 µM (inactive) | > 100 µM (inactive) | 61 µM (inactive) | > 100 µM (inactive) | 47.6 µM (inactive) | 26.5 µM (inactive) | – | 20.7 µM (inactive) | 8.55 µM (inactive) | 14.3 µM (inactive) | 18.8 µM (inactive) | – | 30.2 µM (inactive) | 37.6 µM (inactive) | 50.1 µM (inactive)
9 | Cc1c2ccncc2c(C)c2c1[nH]c1ccc(OCCN(C)C)cc12 | 1.19 µM (inactive) | 0.198 µM (active) | – | 0.024 µM (active) | 0.123 µM | 0.583 µM (active) | 0.171 µM (active) | 0.0614 µM (active) | – | 0.416 µM (active) | 0.0308 µM (active) | 0.333 µM (active) | 0.112 µM (active) | 0.151 µM (active) | 0.125 µM (active) | 0.658 µM (active) | 0.501 µM (active) | 0.309 µM (active) | 0.209 µM (active) | 0.92 µM (active)
10 | C1CCCCc2nc3c(nc2CCC1)c1nc2c(nc1c1nc4c(nc31)CCCCCCCC4)CCCCCCCC2 | > 100 µM (inactive) | > 100 µM (inactive) | > 100 µM (inactive) | > 100 µM (inactive) | > 100 µM | > 100 µM (inactive) | > 100 µM (inactive) | > 100 µM (inactive) | > 100 µM (inactive) | > 100 µM (inactive) | > 100 µM (inactive) | – | > 100 µM (inactive) | > 100 µM (inactive) | > 100 µM (inactive) | > 100 µM (inactive) | > 100 µM (inactive) | > 100 µM (inactive) | > 100 µM (inactive) | > 100 µM (inactive)
11 | c1ccc(COc2cccc3ccc[n+](Cc4ccccc4)c23)cc1 | 16.6 µM (inactive) | 7.46 µM (inactive) | 8.2 µM (inactive) | 6.04 µM (inactive) | 27.5 µM | 3.41 µM (inactive) | 5.01 µM (inactive) | 2.38 µM (inactive) | 9.38 µM (inactive) | 2.84 µM (inactive) | 8.93 µM (inactive) | – | – | 4.06 µM (inactive) | 4.26 µM (inactive) | 5.21 µM (inactive) | 23.8 µM (inactive) | – | 4.01 µM (inactive) | 2.61 µM (inactive)
12 | Nc1ccc(S(=O)(=O)c2ccc(NCN3C(=O)NC(=O)C(=O)C3=O)cc2)cc1 [ALLANTODAPSONE] | > 100 µM (inactive) | > 100 µM (inactive) | > 100 µM (inactive) | 95.7 µM (inactive) | > 100 µM | > 100 µM (inactive) | > 100 µM (inactive) | > 100 µM (inactive) | > 100 µM (inactive) | > 100 µM (inactive) | > 100 µM (inactive) | > 100 µM (inactive) | > 100 µM (inactive) | > 100 µM (inactive) | > 100 µM (inactive) | > 100 µM (inactive) | – | > 100 µM (inactive) | > 100 µM (inactive) | > 100 µM (inactive)
13 | O=C(O)/C(O)=C1/C=C(c2ccccc2)c2ccccc21 | 31.7 µM (inactive) | 26.2 µM (inactive) | 30.1 µM (inactive) | 18.7 µM (inactive) | 22.2 µM | 18.9 µM (inactive) | 33.1 µM (inactive) | 26.1 µM (inactive) | 21.1 µM (inactive) | – | 26.4 µM (inactive) | – | 23.9 µM (inactive) | 22 µM (inactive) | 18.8 µM (inactive) | 16.7 µM (inactive) | 30.4 µM (inactive) | 23.8 µM (inactive) | 18.7 µM (inactive) | 20.8 µM (inactive)
14 | CCOC(=O)c1c(Cl)nc2ccccc2c1N=[N+]=[N-] | > 100 µM (inactive) | 66.8 µM (inactive) | 40.3 µM (inactive) | 41 µM (inactive) | 18.6 µM | 24.7 µM (inactive) | 19.6 µM (inactive) | 69.5 µM (inactive) | 19.1 µM (inactive) | 27.7 µM (inactive) | 23.7 µM (inactive) | 19.5 µM (inactive) | – | 16.4 µM (inactive) | 23.9 µM (inactive) | 19.2 µM (inactive) | 70.5 µM (inactive) | 16.8 µM (inactive) | 24.5 µM (inactive) | 21.8 µM (inactive)
15 | COC1(O)c2cccc(Cl)c2C(=O)N1C1(C(N)=O)CCCCC1 (centres undefined) | > 100 µM (inactive) | > 100 µM (inactive) | – | > 100 µM (inactive) | > 100 µM | 24.4 µM (inactive) | > 43.7 µM (inactive) | > 100 µM (inactive) | – | > 37.5 µM (inactive) | > 100 µM (inactive) | > 100 µM (inactive) | > 100 µM (inactive) | > 100 µM (inactive) | > 100 µM (inactive) | > 100 µM (inactive) | > 100 µM (inactive) | > 100 µM (inactive) | > 100 µM (inactive) | > 100 µM (inactive)
